The IC50 is the midpoint of a concentration-inhibition curve.

One molecule from patent US12115176B2, “Methods and compositions relating to ClbP inhibition” (PRESIDENT AND FELLOWS OF HARVARD COLLEGE, priority 2021, dated 2024) can be followed below.

Test [1] has as its system serine hydrolases in E. coli cell lysates. The test can be described thus: Gel-based ABPP with fluorophosphonate probe (FP). Format: binding. Conditions: inhibitor up to 100 μM. From the text:
To further explore other possible targets of inhibitors 1-4, an activity-based protein profiling (ABPP) approach was used to assay their activity against a wide variety of serine hydrolases in bacterial and mammalian proteomes. […] One limitation of this assay is that ClbP is not labeled by the FP probe, so it cannot be observed as a reference for binding. Any other proteins which evade labeling by FP would also not be detected in this assay.
Activity-Based Protein Profiling. Bacterial or mammalian cell lysates were normalized to 1 mg/mL protein concentrations in PBS using the DC protein assay (Bio-Rad). 50 μL aliquots of lysates were incubated with compounds at the indicated concentrations (1 μL of a 50X stock in DMSO) for 30 minutes at room temperature and subsequently labeled with 5 μM of fluorophosphonate-PEG(4)-biotin probe (1 μL of a 50X stock in DMSO, synthesized as previously reported)^56 for 1 hour at room temperature. The reactions were mixed with 50 μL of 2X SDS protein loading buffer, boiled for 10 minutes at 95° C., and separated by SDS-PAGE. The labeled proteins were detected by IRdye-conjugated streptavidin (Li-Cor) and visualized using the GellOdyssey™ Imaging System (Li-Cor).^56

For test [2], the target named is E. coli BL21 overexpressing ClbP (Escherichia coli, UniProt Q0P7K6). Nature of the test: ClbP fluorescence activity assay (live cells). The test is classed as cell-based. As to the method: ClbP fluorescence activity assay (live cells). One 5 mL starter culture each E. coli BL21 pET-29b-ClbP and pET-29b-ClbP-S95A were inoculated from frozen stocks and grown overnight at 37° C. in LB medium supplemented with 50 μg/ml kanamycin (LB+kan). Overnight cultures were diluted 1:100 in fresh LB+kan and incubated at 37° C. to an OD600 of 0.3, at which point protein expression was induced by the addition of 500 μM isopropyl β-D-1-thiogalactopyranoside (IPTG) and cultures were moved to 15° C. for 4 hours. Cultures were then aliquoted in a black 384-well plate and the appropriate concentration of inhibitor was added as a DMSO stocks to a final concentration of 1% DMSO in a volume of 30 μL. Reactions were initiated by the addition of 10 μL of LB+kan+IPTG containing the fluorogenic substrate (final concentration=100 μM). Plastes were incubated at 25° C. with intermittent shaking while taking regular fluorescence measurements in a Bio-Tek Synergy HTX multimode plate reader with an excitation filter of 360/40 nm and an emission filter of 440/20 nm. “% activity” was determined based on the formula above using RFU measurements after 7 hours.

For the molecule `CC1(C)OB([C@@H](CC(N)=O)NC(=O)CCCc2ccccc2)OC1(C)C` [Compound 3], the “change in protein labeling by FP probe” value in test [1] is given as “does not identify any significant targets”. Further, the IC50 in test [2] is 0.0183 µM.
